Test results taken from patent US6737383B1, “Herbicidal oxadiazolidines” (priority 1999, dated 2004).

Experiments:
[1] = system: morningglory; experiment: Test B pre/postemergence morningglory; type: in vivo, Ipomoea hederacea
Outline: (§1)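 Response is a visual 0-to-10 score relative to untreated plants, where 0 means no effect and 10 means complete control, taken twelve to sixteen days after application. Treatments went onto soil at planting and onto foliage of 1- to 4-leaf plants, using a surfactant-containing non-phytotoxic solvent.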

[2] = system: purple nutsedge; experiment: Test B pre/postemergence purple nutsedge; type: in vivo, Cyperus rotundus
Outline: as §1

[3] = system: giant foxtail; experiment: Test B pre/postemergence giant foxtail; type: in vivo, Setaria faberii
Outline: as §1

[4] = system: velvetleaf; experiment: Test B pre/postemergence velvetleaf; type: in vivo, Abutilon theophrasti; settings: for Plant response rating, Velvetleaf: Postemergence
Outline: as §1

[5] = system: cocklebur; experiment: Test B pre/postemergence cocklebur; type: in vivo, Xanthium strumarium
Outline: as §1

[6] = system: rape; experiment: Test B pre/postemergence rape; type: in vivo, Brassica napus
Outline: as §1

[7] = system: crabgrass; experiment: Test B pre/postemergence crabgrass; type: in vivo, Digitaria sanguinalis
Outline: as §1

[8] = system: wild oat; experiment: Test B pre/postemergence wild oat; type: in vivo, Avena fatua; settings: for Plant response rating, Wild oats: Postemergence
Outline: as §1

[9] = system: bedstraw; experiment: Test B pre/postemergence bedstraw; type: in vivo, Galium aparine
Outline: as §1

[10] = system: blackgrass; experiment: Test B pre/postemergence blackgrass; type: in vivo, Alopecurus myosuroides
Outline: as §1

[11] = system: soybean; experiment: Test B pre/postemergence soybean; type: in vivo, Glycine max; settings: for Plant response rating, Soybean: Postemergence
Outline: as §1

[12] = system: wheat; experiment: Test B pre/postemergence wheat; type: in vivo, Triticum aestivum; settings: for Plant response rating, Wheat: Postemergence
Outline: as §1

[13] = system: pigweed; experiment: Test B pre/postemergence pigweed; type: in vivo, Amaranthus retroflexus; settings: for Plant response rating, Redroot pigweed: Postemergence
Outline: as §1

[14] = system: surinam grass; experiment: Test B pre/postemergence surinam grass; type: in vivo, Brachiaria decumbens
Outline: as §1

[15] = system: sugar beet; experiment: Test B pre/postemergence sugar beet; type: in vivo, Beta vulgaris; settings: for Plant response rating, Sugarbeets: Postemergence
Outline: as §1

[16] = system: corn; experiment: Test B pre/postemergence corn; type: in vivo, Zea mays
Outline: as §1

[17] = Postemergence, Rate 62 g/ha, scale of 0 to 10, 0 is no effect, 10 is complete control
[18] = Postemergence, Rate 125 g/ha, scale 0 to 10, 0 is no effect, 10 is complete control
[19] = Postemergence, Rate 500 g/ha, scale of 0 to 10 where 0 is no effect and 10 is complete control
[20] = Preemergence, Rate 62 g/ha, scale 0 to 10 (0 no effect, 10 complete control)
[21] = Preemergence, Rate 125 g/ha, scale of 0 to 10 where 0 is no effect and 10 is complete control
[22] = Preemergence, Rate 500 g/ha, scale of 0 to 10 where 0 is no effect and 10 is complete control
[23] = Rate 250 g/ha, Postemergence, scale of 0 to 10 where 0 is no effect and 10 is complete control
[24] = Rate 500 g/ha, scale of 0 to 10 where 0 is no effect and 10 is complete control
[25] = Rate 250 g/ha, scale of 0 to 10 where 0 is no effect and 10 is complete control

CC(C)N(C(=O)n1oc(=O)n(COCc2ccccc2)c1=O)c1ccccc1 [Compound 579]
5: Plant response rating, Giant foxtail [3, 23] | Plant response rating, Blackgrass [10, 19]
7: Plant response rating, Giant foxtail [3, 19] | Crabgrass plant response rating [7, 20] | Crabgrass plant response rating [7, 21]
10: Morningglory plant response rating [1, 17] | Morningglory plant response rating [1, 18] | Plant response rating, Morningglory [1, 19] | Plant response rating, Morningglory [1, 23] | Giant foxtail plant response rating (0 to 10 scale) ([3]; Preemergence, Rate 250 g/ha) | Giant foxtail plant response rating [3, 22] | Crabgrass plant response rating (0 to 10 scale) ([7]; Preemergence, Rate 250 g/ha) | Crabgrass plant response rating [7, 22] | Plant response rating, Bedstraw [9, 23]
4: Plant response rating, Soybean [11, 24]
2: Giant foxtail plant response rating [3, 18] | Plant response rating, Blackgrass [10, 23] | Redroot pigweed plant response rating (0 to 10 scale) ([13]; Preemergence, Rate 250 g/ha) | Plant response rating, B. signalgrass [14, 19] | B. signalgrass plant response rating (0 to 10 scale, 0 is no effect, 10 is complete control) ([14]; Preemergence, Rate 250 g/ha) | Plant response rating, B. signalgrass [14, 23]
9: Giant foxtail plant response rating [3, 21]
0: Morningglory plant response rating [1, 20] | Morningglory plant response rating [1, 21] | Morningglory plant response rating (0 to 10 scale) ([1]; Preemergence, Rate 250 g/ha) | Morningglory plant response rating [1, 22] | Nutsedge plant response rating [2, 18] | Nutsedge plant response rating [2, 20] | Nutsedge plant response rating [2, 21] | Nutsedge plant response rating (0 to 10 scale) ([2]; Preemergence, Rate 250 g/ha) | Plant response rating, Nutsedge [2, 23] | Giant foxtail plant response rating [3, 17] | Plant response rating, Velvetleaf [4, 24] | Velvetleaf plant response rating [4, 20] | Velvetleaf plant response rating [4, 21] | Velvetleaf plant response rating (0 to 10 scale) ([4]; Preemergence, Rate 250 g/ha) | Velvetleaf plant response rating [4, 22] | Plant response rating, Velvetleaf [4, 25] | Cocklebur plant response rating [5, 17] | Cocklebur plant response rating [5, 18] | Plant response rating, Cocklebur [5, 19] | Cocklebur plant response rating [5, 20] | Cocklebur plant response rating [5, 21] | Cocklebur plant response rating (0 to 10 scale) ([5]; Preemergence, Rate 250 g/ha) | Cocklebur plant response rating [5, 22] | Plant response rating, Cocklebur [5, 23] | Rape plant response rating [6, 17] | Rape plant response rating [6, 18] | Rape plant response rating [6, 20] | Rape plant response rating [6, 21] | Rape plant response rating (0 to 10 scale) ([6]; Preemergence, Rate 250 g/ha) | Rape plant response rating [6, 22] | Plant response rating, Rape [6, 23] | Crabgrass plant response rating [7, 17] | Plant response rating, Wild oats [8, 24] | Wild oats plant response rating [8, 20] | Wild oats plant response rating [8, 21] | Wild oats plant response rating (0 to 10 scale) ([8]; Preemergence, Rate 250 g/ha) | Wild oats plant response rating [8, 22] | Plant response rating, Wild oats [8, 25] | Bedstraw plant response rating [9, 17] | Bedstraw plant response rating [9, 18] | Bedstraw plant response rating [9, 20] | Bedstraw plant response rating [9, 21] | Bedstraw plant response rating (0 to 10 scale) ([9]; Preemergence, Rate 250 g/ha) | Bedstraw plant response rating [9, 22] | Blackgrass plant response rating [10, 17] | Blackgrass plant response rating [10, 18] | Blackgrass plant response rating [10, 20] | Blackgrass plant response rating [10, 21] | Blackgrass plant response rating (0 to 10 scale) ([10]; Preemergence, Rate 250 g/ha) | Blackgrass plant response rating [10, 22] | Soybean plant response rating [11, 20] | Soybean plant response rating [11, 21] | Soybean plant response rating (0 to 10 scale) ([11]; Preemergence, Rate 250 g/ha) | Soybean plant response rating [11, 22] | Plant response rating, Wheat [12, 24] | Wheat plant response rating [12, 20] | Wheat plant response rating [12, 21] | Wheat plant response rating (0 to 10 scale) ([12]; Preemergence, Rate 250 g/ha) | Wheat plant response rating [12, 22] | Plant response rating, Wheat [12, 25] | Redroot pigweed plant response rating [13, 20] | Redroot pigweed plant response rating [13, 21] | Plant response rating, Redroot pigweed [13, 25] | B. signalgrass plant response rating [14, 17] | B. signalgrass plant response rating [14, 18] | B. signalgrass plant response rating [14, 20] | B. signalgrass plant response rating [14, 21] | Plant response rating, Sugarbeets [15, 24] | Sugarbeets plant response rating [15, 20] | Sugarbeets plant response rating [15, 21] | Sugarbeets plant response rating (0 to 10 scale) ([15]; Preemergence, Rate 250 g/ha) | Sugarbeets plant response rating [15, 22] | Plant response rating, Sugarbeets [15, 25] | Corn plant response rating [16, 17] | Corn plant response rating [16, 18] | Plant response rating, Corn [16, 19] | Corn plant response rating [16, 20] | Corn plant response rating [16, 21] | Corn plant response rating (0 to 10 scale) ([16]; Preemergence, Rate 250 g/ha) | Plant response rating, Corn [16, 23]
3: Nutsedge plant response rating [2, 22] | Plant response rating, Rape [6, 19] | Plant response rating, Soybean [11, 25] | Plant response rating, Redroot pigweed [13, 24] | Redroot pigweed plant response rating [13, 22] | B. signalgrass plant response rating [14, 22] | Corn plant response rating [16, 22]
6: Crabgrass plant response rating [7, 18] | Plant response rating, Crabgrass [7, 23]
8: Giant foxtail plant response rating [3, 20] | Plant response rating, Crabgrass [7, 19]
